# Laboratory results: PubChem BioAssay (NCI)
#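 Grown in 96-well plates, cells were treated for 48 hours with each compound at five concentrations. Insufficient inhibition: endpoint recorded as highest concentration tested. GI50 = concentration required for 50% inhibition of growth. At the TGI there is no net growth.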
# What was measured:
# Assay in all cases: NCI-60 cell line screen, 48 h
# RXF 393 renal = tested on: RXF 393 renal
# SNB-75 CNS = tested on: SNB-75 CNS
# SK-MEL-28 melanoma = tested on: SK-MEL-28 melanoma
# HS 578T breast = tested on: HS 578T breast
# NCI/ADR-RES ovarian = tested on: NCI/ADR-RES ovarian
# OVCAR-5 ovarian = tested on: OVCAR-5 ovarian
# ACHN renal = tested on: ACHN renal
# HL-60(TB) leukemia = tested on: HL-60(TB) leukemia
# SN12C renal = tested on: SN12C renal
# 786-0 renal = tested on: 786-0 renal
# IGROV1 ovarian = tested on: IGROV1 ovarian
# COLO 205 colon = tested on: COLO 205 colon
# KM12 colon = tested on: KM12 colon
# UACC-257 melanoma = tested on: UACC-257 melanoma
# OVCAR-8 ovarian = tested on: OVCAR-8 ovarian
# SK-OV-3 ovarian = tested on: SK-OV-3 ovarian
# PC-3 prostate = tested on: PC-3 prostate
# SR leukemia = tested on: SR leukemia
# OVCAR-4 ovarian = tested on: OVCAR-4 ovarian
# SF-268 CNS = tested on: SF-268 CNS
# SK-MEL-2 melanoma = tested on: SK-MEL-2 melanoma
# M14 melanoma = tested on: M14 melanoma
# HT29 colon = tested on: HT29 colon
# MDA-MB-231 breast = tested on: MDA-MB-231 breast
# MOLT-4 leukemia = tested on: MOLT-4 leukemia
# RPMI-8226 leukemia = tested on: RPMI-8226 leukemia
# A498 renal = tested on: A498 renal
# HCC-2998 colon = tested on: HCC-2998 colon
# SF-539 CNS = tested on: SF-539 CNS
# UACC-62 melanoma = tested on: UACC-62 melanoma
# HOP-62 NSCLC = tested on: HOP-62 NSCLC
# LOX IMVI melanoma = tested on: LOX IMVI melanoma
# NCI-H226 lung = tested on: NCI-H226 lung
# BT-549 breast = tested on: BT-549 breast
# MCF7 breast = tested on: MCF7 breast
# EKVX NSCLC = tested on: EKVX NSCLC
# K-562 leukemia = tested on: K-562 leukemia
# U251 CNS = tested on: U251 CNS
# NCI-H23 lung = tested on: NCI-H23 lung
# OVCAR-3 ovarian = tested on: OVCAR-3 ovarian
# NCI-H522 lung = tested on: NCI-H522 lung
# MDA-MB-468 breast = tested on: MDA-MB-468 breast
# A549 NSCLC = tested on: A549 NSCLC
# HOP-92 NSCLC = tested on: HOP-92 NSCLC
# SW-620 colon = tested on: SW-620 colon
# T-47D breast = tested on: T-47D breast
# SF-295 CNS = tested on: SF-295 CNS
# MDA-MB-435 = tested on: MDA-MB-435
# HCT-15 colon = tested on: HCT-15 colon
# SK-MEL-5 melanoma = tested on: SK-MEL-5 melanoma
# CAKI-1 renal = tested on: CAKI-1 renal
# TK-10 renal = tested on: TK-10 renal
# MALME-3M melanoma = tested on: MALME-3M melanoma
# NCI-H460 lung = tested on: NCI-H460 lung
# DU-145 prostate = tested on: DU-145 prostate
# SNB-19 CNS = tested on: SNB-19 CNS
# CCRF-CEM leukemia = tested on: CCRF-CEM leukemia
smiles,measurement,setting,value
COc1ccc(/C=C/c2n(Cc3ccc4ccccc4c3)c3ccccc3[n+]2Cc2ccc3ccccc3c2)cc1,GI50,RXF 393 renal,0.377 µM
same,TGI,RXF 393 renal,1.59 µM
same,GI50,SNB-75 CNS,0.15 µM
same,TGI,SNB-75 CNS,1.48 µM
same,GI50,SK-MEL-28 melanoma,0.818 µM
same,TGI,SK-MEL-28 melanoma,2.08 µM
same,GI50,HS 578T breast,0.583 µM
same,TGI,HS 578T breast,2.85 µM
same,GI50,NCI/ADR-RES ovarian,2.11 µM
same,TGI,NCI/ADR-RES ovarian,5.43 µM
same,GI50,OVCAR-5 ovarian,0.828 µM
same,TGI,OVCAR-5 ovarian,2.11 µM
same,GI50,ACHN renal,1.12 µM
same,TGI,ACHN renal,2.32 µM
same,GI50,HL-60(TB) leukemia,0.268 µM
same,TGI,HL-60(TB) leukemia,0.993 µM
CN1C(=O)/C(=C/c2ccc3ncsc3c2)NC1=NC12CC3CC(CC(O)(C3)C1)C2,GI50,SN12C renal,2.07 µM
same,TGI,SN12C renal,49.6 µM
same,GI50,786-0 renal,4.02 µM
same,TGI,786-0 renal,> 100 µM
same,GI50,IGROV1 ovarian,2.82 µM
same,TGI,IGROV1 ovarian,> 100 µM
same,GI50,COLO 205 colon,3.18 µM
same,TGI,COLO 205 colon,30.5 µM
same,GI50,KM12 colon,2.81 µM
same,TGI,KM12 colon,> 100 µM
same,GI50,UACC-257 melanoma,3.59 µM
same,TGI,UACC-257 melanoma,12.5 µM
same,GI50,OVCAR-8 ovarian,3.01 µM
same,TGI,OVCAR-8 ovarian,> 100 µM
same,GI50,SK-OV-3 ovarian,2.21 µM
same,TGI,SK-OV-3 ovarian,> 100 µM
same,GI50,PC-3 prostate,3.73 µM
same,TGI,PC-3 prostate,> 100 µM
same,GI50,RXF 393 renal,1.85 µM
same,TGI,RXF 393 renal,12.2 µM
same,GI50,SR leukemia,0.534 µM
same,TGI,SR leukemia,5.37 µM
same,GI50,OVCAR-4 ovarian,9.29 µM
same,TGI,OVCAR-4 ovarian,> 100 µM
same,GI50,SF-268 CNS,4.47 µM
same,TGI,SF-268 CNS,34.5 µM
same,GI50,SK-MEL-2 melanoma,1.98 µM
same,TGI,SK-MEL-2 melanoma,9.48 µM
same,GI50,M14 melanoma,4.28 µM
same,TGI,M14 melanoma,34.4 µM
same,GI50,HT29 colon,3.85 µM
same,TGI,HT29 colon,17.8 µM
same,GI50,MDA-MB-231 breast,4.26 µM
same,TGI,MDA-MB-231 breast,85.4 µM
same,GI50,MOLT-4 leukemia,2.22 µM
same,TGI,MOLT-4 leukemia,22.3 µM
same,GI50,SNB-75 CNS,1.02 µM
same,TGI,SNB-75 CNS,7.89 µM
same,GI50,RPMI-8226 leukemia,1.98 µM
same,TGI,RPMI-8226 leukemia,6.83 µM
same,GI50,A498 renal,1.6 µM
same,TGI,A498 renal,6.68 µM
same,GI50,HCC-2998 colon,7.66 µM
same,TGI,HCC-2998 colon,> 100 µM
same,GI50,SF-539 CNS,1.29 µM
same,TGI,SF-539 CNS,5.82 µM
same,GI50,UACC-62 melanoma,2.22 µM
same,TGI,UACC-62 melanoma,9.09 µM
same,GI50,HOP-62 NSCLC,4.13 µM
same,TGI,HOP-62 NSCLC,> 100 µM
same,GI50,LOX IMVI melanoma,2.52 µM
same,TGI,LOX IMVI melanoma,> 100 µM
same,GI50,NCI-H226 lung,2.7 µM
same,TGI,NCI-H226 lung,> 100 µM
same,GI50,BT-549 breast,1.17 µM
same,TGI,BT-549 breast,10.3 µM
same,GI50,MCF7 breast,2.98 µM
same,TGI,MCF7 breast,> 100 µM
same,GI50,EKVX NSCLC,4.25 µM
same,TGI,EKVX NSCLC,> 100 µM
same,GI50,K-562 leukemia,1.7 µM
same,TGI,K-562 leukemia,> 100 µM
same,GI50,U251 CNS,3.14 µM
same,TGI,U251 CNS,> 100 µM
same,GI50,SK-MEL-28 melanoma,2.57 µM
same,TGI,SK-MEL-28 melanoma,8.69 µM
same,GI50,NCI-H23 lung,2.48 µM
same,TGI,NCI-H23 lung,13.9 µM
same,GI50,HS 578T breast,2.16 µM
same,TGI,HS 578T breast,8.97 µM
same,GI50,OVCAR-3 ovarian,1.4 µM
same,TGI,OVCAR-3 ovarian,6.18 µM
same,GI50,NCI-H522 lung,0.768 µM
same,TGI,NCI-H522 lung,4.49 µM
same,GI50,MDA-MB-468 breast,1.48 µM
same,TGI,MDA-MB-468 breast,15.9 µM
same,GI50,OVCAR-5 ovarian,5.12 µM
same,TGI,OVCAR-5 ovarian,> 100 µM
same,GI50,A549 NSCLC,1.98 µM
same,TGI,A549 NSCLC,> 100 µM
same,GI50,HOP-92 NSCLC,5.31 µM
same,TGI,HOP-92 NSCLC,56.9 µM
same,GI50,SW-620 colon,2.74 µM
same,TGI,SW-620 colon,17.3 µM
same,GI50,T-47D breast,3.32 µM
same,TGI,T-47D breast,> 100 µM
same,GI50,SF-295 CNS,5.28 µM
same,TGI,SF-295 CNS,> 100 µM
same,GI50,MDA-MB-435,3.69 µM
same,TGI,MDA-MB-435,20 µM
same,GI50,HCT-15 colon,2.13 µM
same,TGI,HCT-15 colon,> 100 µM
same,GI50,ACHN renal,0.892 µM
same,TGI,ACHN renal,> 100 µM
same,GI50,SK-MEL-5 melanoma,2.02 µM
same,TGI,SK-MEL-5 melanoma,5.07 µM
same,GI50,CAKI-1 renal,1.64 µM
same,TGI,CAKI-1 renal,> 100 µM
same,GI50,TK-10 renal,4.44 µM
same,TGI,TK-10 renal,> 100 µM
same,GI50,MALME-3M melanoma,2.98 µM
same,TGI,MALME-3M melanoma,8.25 µM
same,GI50,NCI-H460 lung,2.22 µM
same,TGI,NCI-H460 lung,> 100 µM
same,GI50,DU-145 prostate,2.97 µM
same,TGI,DU-145 prostate,> 100 µM
same,GI50,HL-60(TB) leukemia,3.2 µM
same,TGI,HL-60(TB) leukemia,8.15 µM
same,GI50,SNB-19 CNS,3.47 µM
same,TGI,SNB-19 CNS,> 100 µM
same,GI50,CCRF-CEM leukemia,1.92 µM
same,TGI,CCRF-CEM leukemia,8.18 µM
